Assays:
KIT(V559D, T670I) = biological target: T1, KIT(V559D, T670I) (Homo sapiens, UniProt P10721, T670I/V559D); settings: 10 μM; cited from earlier work
T1 construct: purchased Eurofins DiscoverX

TRKA = biological target: T2, TRKA (Homo sapiens, UniProt P04629); settings: 10 μM; cited from earlier work
T2 construct: purchased Eurofins DiscoverX KINOMEscan scanEDGE

ABL1-phosphorylated = biological target: T3, ABL1-phosphorylated (Homo sapiens, UniProt P00519); settings: 10 μM; cited from earlier work
T3 construct: purchased Eurofins DiscoverX

IKK-beta = biological target: T4, IKK-beta (Homo sapiens, UniProt O14920); settings: 10 μM; cited from earlier work
T4 construct: purchased Eurofins DiscoverX
T4 sequence (O14920 whole entry): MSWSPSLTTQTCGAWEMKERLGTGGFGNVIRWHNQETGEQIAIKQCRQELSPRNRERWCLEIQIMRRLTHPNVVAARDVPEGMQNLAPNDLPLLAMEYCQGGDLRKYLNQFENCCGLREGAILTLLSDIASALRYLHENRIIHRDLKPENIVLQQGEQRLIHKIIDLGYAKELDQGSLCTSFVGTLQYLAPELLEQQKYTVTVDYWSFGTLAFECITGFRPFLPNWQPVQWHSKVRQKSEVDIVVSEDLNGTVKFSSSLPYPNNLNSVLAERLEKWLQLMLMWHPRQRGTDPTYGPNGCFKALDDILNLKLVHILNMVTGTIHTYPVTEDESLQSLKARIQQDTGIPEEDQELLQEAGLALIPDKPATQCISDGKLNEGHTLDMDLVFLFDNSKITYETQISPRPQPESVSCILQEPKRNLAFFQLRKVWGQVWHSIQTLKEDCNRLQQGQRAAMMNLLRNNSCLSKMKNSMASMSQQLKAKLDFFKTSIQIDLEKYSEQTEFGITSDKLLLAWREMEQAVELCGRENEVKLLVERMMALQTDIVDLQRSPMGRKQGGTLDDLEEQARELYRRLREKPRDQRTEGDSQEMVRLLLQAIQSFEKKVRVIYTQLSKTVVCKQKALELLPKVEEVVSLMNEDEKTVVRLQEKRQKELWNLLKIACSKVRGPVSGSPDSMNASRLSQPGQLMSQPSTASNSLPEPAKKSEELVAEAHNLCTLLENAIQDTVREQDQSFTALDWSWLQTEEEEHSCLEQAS

RIOK2 = biological target: T5, RIOK2 (Homo sapiens, UniProt Q9BVS4); settings: 10 μM; cited from earlier work
T5 construct: purchased Eurofins DiscoverX KINOMEscan scanEDGE

MKNK2 = biological target: T6, MKNK2 (Homo sapiens, UniProt Q9HBH9); settings: 10 μM; cited from earlier work
T6 construct: purchased Eurofins DiscoverX (KINOMEscan scanEDGE service)
T6 sequence (Q9HBH9 whole entry): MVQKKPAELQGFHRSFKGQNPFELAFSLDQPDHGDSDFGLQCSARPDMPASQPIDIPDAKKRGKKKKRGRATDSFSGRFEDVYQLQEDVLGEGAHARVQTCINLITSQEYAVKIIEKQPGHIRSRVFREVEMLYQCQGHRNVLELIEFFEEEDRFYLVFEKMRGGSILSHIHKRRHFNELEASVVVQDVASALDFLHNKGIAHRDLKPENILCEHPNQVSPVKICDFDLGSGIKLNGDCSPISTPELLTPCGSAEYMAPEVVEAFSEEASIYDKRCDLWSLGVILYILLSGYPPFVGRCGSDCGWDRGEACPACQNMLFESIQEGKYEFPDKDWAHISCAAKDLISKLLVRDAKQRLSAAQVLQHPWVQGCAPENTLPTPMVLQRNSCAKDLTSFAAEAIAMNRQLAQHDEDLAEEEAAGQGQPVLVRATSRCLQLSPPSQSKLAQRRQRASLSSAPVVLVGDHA

SRC = biological target: T7, SRC (Homo sapiens, UniProt P12931); settings: 10 μM; cited from earlier work
T7 construct: purchased Eurofins DiscoverX KINOMEscan scanEDGE

ROCK2 = biological target: T8, ROCK2 (Homo sapiens, UniProt O75116); settings: 10 μM; cited from earlier work
T8 construct: purchased Eurofins DiscoverX KINOMEscan scanEDGE

ERBB2 = biological target: T9, ERBB2 (Homo sapiens, UniProt P04626); settings: 10 μM; cited from earlier work
T9 construct: purchased Eurofins DiscoverX

DCAMKL1 = biological target: T10, DCAMKL1 (Homo sapiens, UniProt O15075); settings: 10 μM; cited from earlier work
T10 construct: purchased Eurofins DiscoverX

p38-beta = biological target: T11, p38-beta (Homo sapiens, UniProt Q15759); settings: 10 μM; cited from earlier work
T11 construct: purchased Eurofins DiscoverX (KINOMEscan scanEDGE service)

MEK2 = biological target: T12, MEK2 (Homo sapiens, UniProt P36507); settings: 10 μM; cited from earlier work
T12 construct: purchased Eurofins DiscoverX (KINOMEscan scanEDGE service)

MLK1 = biological target: T13, MLK1 (Homo sapiens, UniProt P80192); settings: 10 μM; cited from earlier work
T13 construct: purchased Eurofins DiscoverX (KINOMEscan scanEDGE service)

GSK3B = biological target: T14, GSK3B (Homo sapiens, UniProt P49841); settings: 10 μM; cited from earlier work
T14 construct: purchased Eurofins DiscoverX
T14 sequence (P49841 whole entry): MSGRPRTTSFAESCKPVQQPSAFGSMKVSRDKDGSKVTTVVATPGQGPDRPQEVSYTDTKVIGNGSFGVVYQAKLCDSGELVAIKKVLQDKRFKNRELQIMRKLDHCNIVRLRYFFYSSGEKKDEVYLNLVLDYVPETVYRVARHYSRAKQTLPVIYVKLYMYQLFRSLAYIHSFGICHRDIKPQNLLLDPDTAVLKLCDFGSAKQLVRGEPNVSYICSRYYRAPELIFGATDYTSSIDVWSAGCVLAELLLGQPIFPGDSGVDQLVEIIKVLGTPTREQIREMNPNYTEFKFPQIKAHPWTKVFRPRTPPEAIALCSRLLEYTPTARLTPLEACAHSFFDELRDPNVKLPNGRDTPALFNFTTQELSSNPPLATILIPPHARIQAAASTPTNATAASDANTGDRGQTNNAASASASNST

PKAC-alpha = biological target: T15, PKAC-alpha (Homo sapiens, UniProt P17612); settings: 10 μM; cited from earlier work
T15 construct: purchased Eurofins DiscoverX KINOMEscan scanEDGE

PRKCE = biological target: T16, PRKCE (Homo sapiens, UniProt Q02156); settings: 10 μM; cited from earlier work
T16 construct: purchased Eurofins DiscoverX KINOMEscan scanEDGE

p38-alpha = biological target: T17, p38-alpha (Homo sapiens, UniProt Q16539); settings: 10 μM; cited from earlier work
T17 construct: purchased Eurofins DiscoverX (KINOMEscan scanEDGE service)

IKK-alpha = biological target: T18, IKK-alpha (Homo sapiens, UniProt O15111); settings: 10 μM; cited from earlier work
T18 construct: purchased Eurofins DiscoverX

AURKB = biological target: T19, AURKB (Homo sapiens, UniProt Q96GD4); settings: 10 μM; cited from earlier work
T19 construct: purchased Eurofins DiscoverX

FGFR3 = biological target: T20, FGFR3 (Homo sapiens, UniProt P22607); settings: 10 μM; cited from earlier work
T20 construct: purchased Eurofins DiscoverX
T20 sequence (P22607 23-806): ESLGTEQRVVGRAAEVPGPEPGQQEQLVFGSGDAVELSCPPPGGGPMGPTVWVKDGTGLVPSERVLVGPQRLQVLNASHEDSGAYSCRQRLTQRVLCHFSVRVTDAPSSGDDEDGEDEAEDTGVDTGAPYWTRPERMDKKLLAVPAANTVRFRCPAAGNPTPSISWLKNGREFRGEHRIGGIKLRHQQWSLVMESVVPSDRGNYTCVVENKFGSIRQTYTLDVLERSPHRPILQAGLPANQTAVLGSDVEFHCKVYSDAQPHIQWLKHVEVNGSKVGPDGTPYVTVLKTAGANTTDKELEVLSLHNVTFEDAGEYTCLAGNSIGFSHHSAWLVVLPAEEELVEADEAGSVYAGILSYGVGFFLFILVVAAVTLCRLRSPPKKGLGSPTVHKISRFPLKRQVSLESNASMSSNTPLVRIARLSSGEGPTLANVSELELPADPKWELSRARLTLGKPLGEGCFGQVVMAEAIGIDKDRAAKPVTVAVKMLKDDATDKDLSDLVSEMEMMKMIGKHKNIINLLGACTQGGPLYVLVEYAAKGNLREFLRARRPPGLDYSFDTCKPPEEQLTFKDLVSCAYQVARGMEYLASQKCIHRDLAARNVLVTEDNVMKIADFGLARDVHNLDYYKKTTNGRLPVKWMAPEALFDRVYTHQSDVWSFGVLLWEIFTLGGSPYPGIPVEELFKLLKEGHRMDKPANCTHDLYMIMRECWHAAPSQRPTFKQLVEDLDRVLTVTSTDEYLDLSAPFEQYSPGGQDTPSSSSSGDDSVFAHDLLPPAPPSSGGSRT

PDGFRA = biological target: T21, PDGFRA (Homo sapiens, UniProt P16234); settings: 10 μM; cited from earlier work
T21 construct: purchased Eurofins DiscoverX (KINOMEscan scanEDGE service)

AURKA = biological target: T22, AURKA (Homo sapiens, UniProt O14965); settings: 10 μM; cited from earlier work
T22 construct: purchased Eurofins DiscoverX

CDK2 = biological target: T23, CDK2 (Homo sapiens, UniProt P24941); settings: 10 μM; cited from earlier work
T23 construct: purchased Eurofins DiscoverX

JNK3 = biological target: T24, JNK3 (Homo sapiens, UniProt P53779); settings: 10 μM; cited from earlier work
T24 construct: purchased Eurofins DiscoverX

BRAF = biological target: T25, BRAF (Homo sapiens, UniProt P15056); settings: 10 μM; cited from earlier work
T25 construct: purchased Eurofins DiscoverX

SNARK = biological target: T26, SNARK (Homo sapiens, UniProt Q9H093); settings: 10 μM; cited from earlier work
T26 construct: purchased Eurofins DiscoverX KINOMEscan scanEDGE

SRPK3 = biological target: T27, SRPK3 (Homo sapiens, UniProt Q9UPE1); settings: 10 μM; cited from earlier work
T27 construct: purchased Eurofins DiscoverX KINOMEscan scanEDGE

PCTK1 = biological target: T28, PCTK1 (Homo sapiens, UniProt Q00536); settings: 10 μM; cited from earlier work
T28 construct: purchased Eurofins DiscoverX (KINOMEscan scanEDGE service)

ZAP70 = biological target: T29, ZAP70 (Homo sapiens, UniProt P43403); settings: 10 μM; cited from earlier work
T29 construct: purchased Eurofins DiscoverX KINOMEscan scanEDGE
T29 sequence (P43403 whole entry): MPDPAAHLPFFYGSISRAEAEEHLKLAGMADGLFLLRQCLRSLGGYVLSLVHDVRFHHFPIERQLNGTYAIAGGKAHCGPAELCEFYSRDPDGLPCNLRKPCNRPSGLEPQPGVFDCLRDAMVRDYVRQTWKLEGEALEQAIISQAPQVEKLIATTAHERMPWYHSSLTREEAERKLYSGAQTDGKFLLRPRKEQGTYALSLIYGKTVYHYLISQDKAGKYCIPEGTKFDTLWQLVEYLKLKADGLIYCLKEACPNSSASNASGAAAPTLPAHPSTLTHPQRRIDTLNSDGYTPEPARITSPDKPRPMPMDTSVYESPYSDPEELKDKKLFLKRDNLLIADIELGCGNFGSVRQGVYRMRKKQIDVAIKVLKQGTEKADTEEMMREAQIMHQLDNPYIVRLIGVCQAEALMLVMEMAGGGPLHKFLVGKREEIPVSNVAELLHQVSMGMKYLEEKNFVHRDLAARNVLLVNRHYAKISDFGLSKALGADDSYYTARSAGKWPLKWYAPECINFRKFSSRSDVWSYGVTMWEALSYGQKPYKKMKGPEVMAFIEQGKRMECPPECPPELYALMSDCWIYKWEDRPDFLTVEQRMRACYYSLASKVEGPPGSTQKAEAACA

[1] = biological target: T30, TYK2(JH1domain-catalytic) (Homo sapiens, UniProt P29597); settings: 10 μM; cited from earlier work
T30 construct: TYK2(JH1domain-catalytic); purchased Eurofins DiscoverX KINOMEscan scanEDGE
T30 sequence (P29597 897-1176 limits assumed): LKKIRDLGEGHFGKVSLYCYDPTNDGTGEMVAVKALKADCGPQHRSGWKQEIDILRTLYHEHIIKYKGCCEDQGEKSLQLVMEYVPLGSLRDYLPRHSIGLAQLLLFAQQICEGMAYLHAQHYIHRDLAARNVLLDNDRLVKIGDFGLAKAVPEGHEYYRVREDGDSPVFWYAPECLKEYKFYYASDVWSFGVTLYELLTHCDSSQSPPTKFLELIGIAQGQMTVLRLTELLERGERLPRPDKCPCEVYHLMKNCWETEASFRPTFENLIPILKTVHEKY

cortical neurons = assay: Spinogenesis; type: cell-based, rat; settings: cortical neurons (DIV15), 10 μM, 24 h
Experimental: (A) Representative images of cortical neurons (DIV15) treated with compounds (10 μM) for 24 h. (B) Quantification of dendritic spine density (n=29-55 neurons per treatment condition). Data are represented as mean±SEM. *p<0.05, **p<0.01, ***p<0.001, ****p<0.0001, as compared to the vehicle control following a one-way ANOVA with Dunnett's post hoc test. VEH=vehicle (0.2% DMSO).
Spinogenesis. Spinogenesis experiments were performed as previously described with the exception that cells were treated at DIV14 and fixed 24 h after treatment on DIV15. The images were taken on a Nikon HCA confocal microscope with a 100×/NA 1.45 oil objective. Experiments were performed in duplicate with plates prepared using neurons obtained from independent pregnant dams. Images were analyzed by an experimenter blinded to the treatment conditions.

97 kinases = assay: KINOMEscan scanEDGE, whole panel; type: binding; settings: 10 μM
Experimental: Compounds were screened at 10 μM using the DiscoverX KinomeSCAN™ assay. Results are reported as the % activity relative to the vehicle (i.e., DMSO) control, where lower values indicate higher affinity (see Table 1 for full scan data). The activity of HTW_A_8 fumarate at PIK3CG was minimal (33%) and barely met the threshold for inclusion. […] Data for harmine were obtained from a previous report.
Kinome Scan. Compound HTW_A_8 fumarate was screened against 97 kinases at a single concentration of 10 μM at Eurofins DiscoverX using their KINOMEscan™ scanEDGE assay. The results are reported as the % activity relative to DMSO control, where lower values indicate higher affinity. See Table 1 for the full kinome profile.

T1 sequence (P10721 26-976 V559D/T670I): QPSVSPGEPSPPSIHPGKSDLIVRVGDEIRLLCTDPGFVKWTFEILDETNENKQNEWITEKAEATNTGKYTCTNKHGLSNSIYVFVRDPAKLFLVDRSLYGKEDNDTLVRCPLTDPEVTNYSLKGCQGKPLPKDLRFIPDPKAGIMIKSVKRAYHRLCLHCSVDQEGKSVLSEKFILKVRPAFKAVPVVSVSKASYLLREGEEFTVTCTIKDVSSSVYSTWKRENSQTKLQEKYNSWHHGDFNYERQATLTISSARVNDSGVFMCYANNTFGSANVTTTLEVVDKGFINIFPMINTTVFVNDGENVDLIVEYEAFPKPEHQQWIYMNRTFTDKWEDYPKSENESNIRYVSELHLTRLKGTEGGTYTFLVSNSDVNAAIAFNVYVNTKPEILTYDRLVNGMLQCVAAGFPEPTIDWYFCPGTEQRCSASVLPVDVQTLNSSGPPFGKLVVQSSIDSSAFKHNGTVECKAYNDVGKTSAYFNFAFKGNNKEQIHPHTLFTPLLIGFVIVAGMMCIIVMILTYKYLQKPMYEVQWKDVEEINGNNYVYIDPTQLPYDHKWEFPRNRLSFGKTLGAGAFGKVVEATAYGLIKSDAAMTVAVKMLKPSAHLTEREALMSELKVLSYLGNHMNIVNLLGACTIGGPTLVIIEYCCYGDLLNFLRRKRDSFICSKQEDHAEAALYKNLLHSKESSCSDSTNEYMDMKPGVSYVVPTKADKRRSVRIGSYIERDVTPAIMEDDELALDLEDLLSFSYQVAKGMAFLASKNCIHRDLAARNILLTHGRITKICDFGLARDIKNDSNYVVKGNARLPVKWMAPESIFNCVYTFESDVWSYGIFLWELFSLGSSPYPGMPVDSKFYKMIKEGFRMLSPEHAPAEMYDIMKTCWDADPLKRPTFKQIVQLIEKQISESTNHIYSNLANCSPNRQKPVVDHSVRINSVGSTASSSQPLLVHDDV
T2 sequence (P04629 33-796): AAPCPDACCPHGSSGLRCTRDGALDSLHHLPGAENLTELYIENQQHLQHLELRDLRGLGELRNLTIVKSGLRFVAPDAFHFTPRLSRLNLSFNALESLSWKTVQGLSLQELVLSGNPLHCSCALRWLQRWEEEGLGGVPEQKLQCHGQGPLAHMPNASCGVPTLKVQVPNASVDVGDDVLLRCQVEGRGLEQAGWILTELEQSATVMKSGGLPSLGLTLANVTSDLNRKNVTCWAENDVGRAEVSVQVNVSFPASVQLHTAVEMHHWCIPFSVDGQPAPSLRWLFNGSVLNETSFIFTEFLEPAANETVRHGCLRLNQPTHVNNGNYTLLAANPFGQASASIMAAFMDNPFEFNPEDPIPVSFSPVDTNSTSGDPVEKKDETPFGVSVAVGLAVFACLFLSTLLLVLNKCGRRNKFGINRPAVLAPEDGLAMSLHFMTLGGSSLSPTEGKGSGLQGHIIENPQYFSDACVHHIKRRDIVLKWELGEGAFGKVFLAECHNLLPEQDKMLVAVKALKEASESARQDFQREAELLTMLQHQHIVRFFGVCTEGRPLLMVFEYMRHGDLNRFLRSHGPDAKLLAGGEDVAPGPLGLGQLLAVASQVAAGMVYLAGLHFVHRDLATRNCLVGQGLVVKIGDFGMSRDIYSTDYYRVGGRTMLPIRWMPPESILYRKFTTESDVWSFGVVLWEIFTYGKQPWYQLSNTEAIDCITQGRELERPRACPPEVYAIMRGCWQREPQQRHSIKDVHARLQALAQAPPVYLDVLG

COc1ccc2c(c1)[nH]c1c(C)nccc12 [Harmine, harmine]
Percent Control (KIT(V559D, T670I)): 92% | Percent Control (TRKA): 100% | Percent Control (ABL1-phosphorylated): 100% | Percent Control (IKK-beta): 95% | Percent Control (RIOK2): 74% | Percent Control (MKNK2): 22% | Percent Control (SRC): 90% | Percent Control (ROCK2): 43% | Percent Control (ERBB2): 85% | Percent Control (DCAMKL1): 79% | Percent Control (p38-beta): 85% | Percent Control (MEK2): 96% | Percent Control (MLK1): 100% | Percent Control (GSK3B): 71% | Percent Control (PKAC-alpha): 88% | Percent Control (PRKCE): 91% | Percent Control (p38-alpha): 95% | Percent Control (IKK-alpha): 81% | Percent Control (AURKB): 80% | Percent Control (FGFR3): 94% | Percent Control (PDGFRA): 90% | Percent Control (AURKA): 85% | Percent Control (CDK2): 98% | Percent Control (JNK3): 80% | Percent Control (BRAF): 100% | Percent Control (SNARK): 95% | Percent Control (SRPK3): 84% | Percent Control (PCTK1): 100% | Percent Control (ZAP70): 92% | Percent Control [1]: 96%

COc1ccc2c3ccnc(C)c3n(CCN(C)C)c2c1.O=C(O)/C=C/C(=O)O [HTW_A_8 fumarate, 2-(7-methoxy-1-methyl-9H-pyrido[3,4-b]indol-9-yl)-N,N-dimethylethan-1-amine Fumarate Salt (2:3)]
dendritic spine density (cortical neurons): significantly increases dendritic spine density | activity at other kinases of the LIPID family (besides PIK3CG) (97 kinases): did not exhibit activity for any other kinase in the LIPID family | kinase family selectivity (97 kinases; 97 kinases): selective for kinases in the CMGC family

— patent US20260284018A1, “DUAL INHIBITORS OF DYRK1A AND 5-HT2 FOR TREATING A BRAIN DISORDER” (THE REGENTS OF THE UNIVERSITY OF CALIFORNIA, priority 2023, published 2026)
